Experimental data published in patent US11065231B2, “Compounds and methods for the targeted degradation of interleukin-1 receptor- associated kinase 4 polypeptides” (Arvinas Operations, Inc., priority 2017, dated 2021).

Columns and labels:
[1] = target: T1, IRAK4 (Homo sapiens (Human), UniProt Q9NWZ3); test: Western blots of IRAK4 protein degradation; assay type: cell-based; conditions: from western blots
[2] = target: T2, IRAK1 (Homo sapiens (Human), UniProt P51617); test: Western blots of IRAK1 protein degradation; assay type: cell-based
T2 sequence (P51617 whole entry): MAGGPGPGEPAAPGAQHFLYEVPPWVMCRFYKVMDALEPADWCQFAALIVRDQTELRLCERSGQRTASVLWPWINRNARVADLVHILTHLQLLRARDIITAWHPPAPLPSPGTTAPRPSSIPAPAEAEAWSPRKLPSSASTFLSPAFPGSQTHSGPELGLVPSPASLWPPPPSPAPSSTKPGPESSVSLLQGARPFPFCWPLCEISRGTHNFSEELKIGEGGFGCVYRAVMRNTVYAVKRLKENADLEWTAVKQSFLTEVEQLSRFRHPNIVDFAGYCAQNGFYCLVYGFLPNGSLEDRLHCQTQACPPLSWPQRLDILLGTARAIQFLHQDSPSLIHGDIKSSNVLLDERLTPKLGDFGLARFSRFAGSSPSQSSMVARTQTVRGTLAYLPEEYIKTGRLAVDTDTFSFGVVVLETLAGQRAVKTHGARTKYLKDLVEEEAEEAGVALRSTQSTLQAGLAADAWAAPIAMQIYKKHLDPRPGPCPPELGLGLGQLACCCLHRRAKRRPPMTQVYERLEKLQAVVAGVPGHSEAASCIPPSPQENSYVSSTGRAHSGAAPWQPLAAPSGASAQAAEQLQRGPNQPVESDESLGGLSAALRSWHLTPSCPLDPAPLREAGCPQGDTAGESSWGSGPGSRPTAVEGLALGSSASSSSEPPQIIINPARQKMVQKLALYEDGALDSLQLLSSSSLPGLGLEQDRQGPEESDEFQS

[3] = target: T1, IRAK4; test: ELISA assay for IRAK4 degradation in MCF7 cells; assay type: cell-based; conditions: Table 1, 24 hours
Experimental: Enzyme-Linked Immunosorbent Assay (ELISA) Assay for IRAK4 Degradation.
MCF7 cells, purchased from ATCC (Manassas, Va.), were used at a passage range of 2-19. Cells were prepared and treated with compounds for 24 hours, exactly as described above for the Western blots. The ELISA assay was performed using the kit and instructions described by Abcam (cat. #: ab213472, Abcam Biotechnology, Cambridge, Mass.). Table 1 below provides and compares the ELISA IRAK4 degradation data to the western blot IRAK 4 degradation data for Examples 2, 3, 4, and 5. Furthermore, FIG. 5 is a graph illustrating the ELISA IRAK4 degradation data.

[4] = target: T2, IRAK1; test: Western blot assay for degradation of IRAK1 in MCF7 cells; assay type: cell-based
[5] = target: T1, IRAK4; test: Western blot assay for assessing degradation of IRAK4 in MCF7 cells; assay type: cell-based
Summary of the method: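 MCF7 cells were treated 24 h with serially diluted compound (0.1% DMSO final), then lysed in RIPA. IRAK4 and IRAK1 levels were measured by western blot with β-actin probed alongside. Percent degradation compared compound-treated with DMSO-treated lysates.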

[6] = target: T1, IRAK4; test: Biochemical Z'-Lyte FRET assay for IRAK4 kinase inhibition; conditions: 2 nM enzyme, 1 mM ATP, 2 μM substrate
Summary of the method: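 Z′-Lyte FRET phosphorylation of Ser/Thr 7 peptide (2 µM) by 2 nM recombinant IRAK4 at 1 mM ATP in HEPES pH 7.5 with MgCl2/MnCl2, after 10 min enzyme–compound preincubation; 1 h at room temperature, then 1 h development, 460/530 nm emission. Duplicate 12-point, 3-fold curves from 30 µM; IC50 from percent inhibition against ±100% controls.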

[7] = Table 5, IRAK4 degradation, 24 hour incubation, read-out: IRAK4 Dmax (%)
[8] = western blot, 24 hour incubation, read-out: Dmax (IRAK4 degradation)
[9] = Table 1, 24 hours, read-out: IRAK4 by western DC50
[10] = Table 5, IRAK4 degradation, 24 hour incubation, read-out: IRAK4 DC50
[11] = western blot, 24 hour incubation, read-out: DC50 (IRAK4 degradation)

T1 sequence (Q9NWZ3 whole entry): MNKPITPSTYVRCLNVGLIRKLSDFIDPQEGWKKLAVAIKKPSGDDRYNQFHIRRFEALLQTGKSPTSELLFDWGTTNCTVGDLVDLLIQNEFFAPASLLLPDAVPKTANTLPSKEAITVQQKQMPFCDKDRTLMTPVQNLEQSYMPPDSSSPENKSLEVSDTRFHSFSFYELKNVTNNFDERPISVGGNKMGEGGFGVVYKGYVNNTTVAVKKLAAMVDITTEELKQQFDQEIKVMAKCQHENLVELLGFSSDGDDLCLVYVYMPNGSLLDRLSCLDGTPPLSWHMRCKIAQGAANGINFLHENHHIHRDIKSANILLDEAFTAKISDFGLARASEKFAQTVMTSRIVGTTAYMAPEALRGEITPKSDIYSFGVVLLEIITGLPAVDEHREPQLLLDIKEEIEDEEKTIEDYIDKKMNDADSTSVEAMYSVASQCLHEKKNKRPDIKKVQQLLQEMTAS

| Compound | DC50 [1] [nM] | Dmax [1] [%] | degradation of IRAK1 [2] | IRAK4 by ELISA % degraded [3] [%] | IRAK1 protein degradation [4] | IRAK4 by western % degraded ([5]; Table 1, 24 hours) [%] | Dmax [5, 7] [%] | Dmax [5, 8] [%] | DC50 [5, 9] [nM] | DC50 [5, 10] [nM] | DC50 [5, 11] [nM] | IC50 [6] [nM] | Dmax ([1]; read-out: Dmax) [%] |
| --- | --- | --- | --- | --- | --- | --- | --- | --- | --- | --- | --- | --- | --- |
| O=C1CCC(N2C(=O)c3ccc(OCCOCCN4CCN(Cc5ccc6c(c5)nc(NC(=O)c5cccc(C(F)(F)F)c5)n6C5CCC(CO)CC5)CC4)cc3C2=O)C(=O)N1 (centres unmarked) [Exemplary Compound 2, N-(5-((4-(2-(2-((2-(2,6-dioxopiperidin-3-yl)-1,3-dioxoisoindolin-5-yl)oxy)ethoxy)ethyl)piperazin-1-yl)methyl)-1-((1s,4s)-4-(hydroxymethyl)cyclohexyl)-1H-benzo[d]imidazol-2-yl)-3-(trifluoromethyl)benzamide] | 9.7 | 71 | no significant degradation was observed | – | – | – | – | – | – | – | – | – | – |
| O=C1CCC(N2C(=O)c3ccc(OCCOCCN4CCN(Cc5ccc6c(c5)nc(NC(=O)c5cccc(C(F)(F)F)c5)n6C5CCC(CO)CC5)CC4)cc3C2=O)C(=O)N1 (centres unmarked) [compound 2, N-(5-((4-(2-(2-((2-(2,6-dioxopiperidin-3-yl)-1,3-dioxoisoindolin-5-yl)oxy)ethoxy)ethyl)piperazin-1-yl)methyl)-1-((1s,4s)-4-(hydroxymethyl)cyclohexyl)-1H-benzo[d]imidazol-2-yl)-3-(trifluoromethyl)benzamide] | – | – | – | 76 | no significant degradation was observed | 71 | 50 to 70 | 71 | – | – | – | – | – |
| O=C1CCC(N2C(=O)c3ccc(OCCOCCOCCN4CCN(Cc5ccc6c(c5)nc(NC(=O)c5cccc(C(F)(F)F)c5)n6[C@H]5CC[C@@H](CO)CC5)CC4)cc3C2=O)C(=O)N1 (some centres unmarked) [compound 3, N-(5-((4-(2-(2-(2-((2-(2,6-dioxopiperidin-3-yl)-1,3-dioxoisoindolin-5-yl)oxy)ethoxy)ethoxy)ethyl)piperazin-1-yl)methyl)-1-((1s,4s)-4-(hydroxymethyl)cyclohexyl)-1H-benzo[d]imidazol-2-yl)-3-(trifluoromethyl)benzamide] | – | – | – | 86 | no significant degradation was observed | 80 | > 70 | 80 | 23 | < 30 | 23 | < 30 | – |
| O=C1CCC(N2C(=O)c3ccc(OCCOCCOCCOCCN4CCN(Cc5ccc6c(c5)nc(NC(=O)c5cccc(C(F)(F)F)c5)n6[C@H]5CC[C@@H](CO)CC5)CC4)cc3C2=O)C(=O)N1 (some centres unmarked) [compound 4, N-(5-((4-(2-(2-(2-(2-((2-(2,6-dioxopiperidin-3-yl)-1,3-dioxoisoindolin-5-yl)oxy)ethoxy)ethoxy)ethoxy)ethyl)piperazin-1-yl)methyl)-1-((1s,4s)-4-(hydroxymethyl)cyclohexyl)-1H-benzo[d]imidazol-2-yl)-3-(trifluoromethyl)benzamide] | – | – | – | 89 | – | 87 | > 70 | – | 25 | < 30 | – | < 30 | – |
| O=C1CCC(N2C(=O)c3ccc(OCCOCCOCCOCCOCCN4CCN(Cc5ccc6c(c5)nc(NC(=O)c5cccc(C(F)(F)F)c5)n6[C@H]5CC[C@@H](CO)CC5)CC4)cc3C2=O)C(=O)N1 (some centres unmarked) [compound 5, N-(5-((4-(14-((2-(2,6-dioxopiperidin-3-yl)-1,3-dioxoisoindolin-5-yl)oxy)-3,6,9,12-tetraoxatetradecyl)piperazin-1-yl)methyl)-1-((1s,4s)-4-(hydroxymethyl)cyclohexyl)-1H-benzo[d]imidazol-2-yl)-3-(trifluoromethyl)benzamide] | – | – | – | 80 | – | 76 | 50 to 70 | – | 40 | 30 to 100 | – | < 30 | – |
| COc1cc2nn(C3CCN(CCOCCOc4ccc5c(c4)CN(C4CCC(=O)NC4=O)C5=O)CC3)cc2cc1NC(=O)c1cccc(C(F)(F)F)n1 (centres unmarked) [compound 60, N-(2-(1-(2-(2-((2-(2,6-dioxopiperidin-3-yl)-1-oxoisoindolin-5-yl)oxy)ethoxy)ethyl)piperidin-4-yl)-6-methoxy-2H-indazol-5-yl)-6-(trifluoromethyl)picolinamide] | 3.5 | – | – | – | – | – | 50 to 70 | 73 | – | < 30 | 3.5 | < 30 | 73 |
| N-(1-((1s,4s)-4-(13-((2-(2,6- dioxopiperidin-3-yl)-1,3- dioxoisoindolin-5-yl)oxy)- 2,5,8,11- tetraoxatetradecyl)cyclohexyl)- 5-(piperidin-1-ylmethyl)-1H- benzo[d]imidazol-2-yl)-3- (trifluoromethyl)benzamide [compound 42] | – | – | – | – | – | – | – | – | – | ≥ 1000 | – | 300 to 1000 | – |
